ChEMBL document CHEMBL5500412, “Discovery of Highly Selective, Potent, Covalent, and Orally Bioavailable Factor XIIa Inhibitors for the Treatment of Thrombo-Inflammation” (J Med Chem, 2024)
Calls of active or inactive are those of the source. No cut-off for these calls is given here.

Experiments:
[1] = target: T1, Coagulation factor XII (Homo sapiens, UniProt P00748); assay: Inhibition of FXIIa (unknown origin) using H-D-Pro-Phe-Arg-pNA as substrate incubated for 20 mins followed by substrate addition by spectrophotometric analysis
T1 sequence (P00748 whole entry): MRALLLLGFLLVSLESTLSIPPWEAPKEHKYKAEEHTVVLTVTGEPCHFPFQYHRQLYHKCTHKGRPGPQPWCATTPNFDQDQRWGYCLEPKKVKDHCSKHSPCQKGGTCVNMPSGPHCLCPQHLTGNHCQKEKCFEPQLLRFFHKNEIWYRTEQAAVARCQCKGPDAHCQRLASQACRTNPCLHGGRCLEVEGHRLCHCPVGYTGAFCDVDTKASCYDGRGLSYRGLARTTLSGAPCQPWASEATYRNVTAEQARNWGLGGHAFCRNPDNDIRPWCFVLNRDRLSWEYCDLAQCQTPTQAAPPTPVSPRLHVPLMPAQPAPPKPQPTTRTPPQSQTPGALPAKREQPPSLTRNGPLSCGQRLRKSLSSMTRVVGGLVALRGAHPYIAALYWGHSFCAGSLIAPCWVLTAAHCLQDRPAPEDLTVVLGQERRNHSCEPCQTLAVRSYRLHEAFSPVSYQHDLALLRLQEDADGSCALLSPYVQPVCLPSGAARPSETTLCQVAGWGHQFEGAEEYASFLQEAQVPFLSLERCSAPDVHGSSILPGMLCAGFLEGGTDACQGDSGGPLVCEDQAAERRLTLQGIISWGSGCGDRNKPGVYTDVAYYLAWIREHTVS

[2] = target: Prothrombin (Homo sapiens, UniProt P00734); assay: Inhibition of thrombin (unknown origin) using H-D-Phe-Pip-Arg-pNA-2HCl as substrate incubated for 20 mins followed by substrate addition by spectrophotometric analysis
[3] = target: Plasma kallikrein (Homo sapiens, UniProt P03952); assay: Inhibition of PKal (unknown origin) using H-D-Pro-Phe-Arg-pNA-2HCl as substrate incubated for 20 mins followed by substrate addition by spectrophotometric analysis
[4] = target: Coagulation factor XI (Homo sapiens, UniProt P03951); assay: Inhibition of FXIa (unknown origin) using p-Glu-Pro-Arg-pNA.HCl as chromogenic substrate incubated for 20 mins followed by substrate addition by spectrophotometric analysis
[5] = target: Trypsin (Homo sapiens, UniProt P07477+P07478+P35030); assay: Inhibition of trypsin (unknown origin) using Bz-lle-Glu(gamma-OR)-Gly-Arg-pNA.HCl as chromogenic substrate incubated for 20 mins followed by substrate addition by spectrophotometric analysis; format: protein assay
[6] = target: Chymotrypsin (Homo sapiens, UniProt Q99895+P17538+P40313+Q6GPI1); assay: Inhibition of Chymotrypsin (unknown origin) using N-Suc-Ala-Ala-Pro-Phe-pNA as chromogenic substrate incubated for 20 mins followed by substrate addition by spectrophotometric analysis; format: protein assay
[7] = target: Tissue-type plasminogen activator (Homo sapiens, UniProt P00750); assay: Inhibition of tPA (unknown origin) using H-D-lle-Pro-Arg-pNA-2HCl as chromogenic substrate incubated for 20 mins followed by substrate addition by spectrophotometric analysis
[8] = Selectivity index, ratio of IC50 for thrombin (unknown origin) to IC50 for FXIIa (unknown origin)
[9] = Selectivity index, ratio of IC50 for PKal (unknown origin) to IC50 for FXIIa (unknown origin)
[10] = Selectivity index, ratio of IC50 for FXIa (unknown origin) to IC50 for FXIIa (unknown origin)
[11] = Selectivity index, ratio of IC50 for FXa (unknown origin) to IC50 for FXIIa (unknown origin)
[12] = Selectivity index, ratio of IC50 for trypsin (unknown origin) to IC50 for FXIIa (unknown origin)
[13] = Selectivity index, ratio of IC50 for chymotrypsin (unknown origin) to IC50 for FXIIa (unknown origin)
[14] = Selectivity index, ratio of IC50 for plasmin (unknown origin) to IC50 for FXIIa (unknown origin)
[15] = Selectivity index, ratio of IC50 for tPA (unknown origin) to IC50 for FXIIa (unknown origin)
[16] = target: T2, Coagulation factor XII (Homo sapiens) (UniProt P00748); assay: Covalent inhibition of FXIIa (unknown origin) at 20 to 40 nM measured after 10 mins; settings: dose 20-40 nM
T2 sequence (whole entry): T1 sequence (P00748 whole entry)

[17] = target: T1, Coagulation factor XII; assay: Binding affinity to FXIIa (unknown origin) assessed as inhibition constant using H-D-Pro-Phe-Arg-pNA.2HCl as substrate by spectrophotometric analysis
[18] = target: T2, Coagulation factor XII (Homo sapiens); assay: Binding affinity to FXIIa (unknown origin) assessed as inactivation rate using H-D-Pro-Phe-Arg-pNA.2HCl as substrate by spectrophotometric analysis
[19] = target: T2, Coagulation factor XII (Homo sapiens); assay: Inhibition of FXIIa (unknown origin) using H-D-Pro-Phe-Arg-pNA as substrate preincubated for 20 mins followed by 100 fold dilution upto 120 mins then substrate addition for 60 mins by jump dilution assay; settings: time <= 200.0 min
[20] = target: T2, Coagulation factor XII (Homo sapiens); assay: Binding affinity to FXIIa (unknown origin) assessed as Kinact/Ki using H-D-Pro-Phe-Arg-pNA.2HCl as substrate by spectrophotometric analysis
[21] = system: RAW264.7; assay: Antiinflammatory activity in mouse RAW264.7 cells assessed as inhibition of LPS-induced IL-1 beta expression at 10 uM preincubated for 12 hrs followed by LPS stimulation and measured after 12 hrs by real time quantitative RT-PCR assay; format: functional, cell-based; settings: time 24.0 hrs
[22] = system: RAW264.7; assay: Antiinflammatory activity in mouse RAW264.7 cells assessed as inhibition of LPS-induced IL-6 expression at 10 uM preincubated for 12 hrs followed by LPS stimulation and measured after 12 hrs by real time quantitative RT-PCR assay; format: functional, cell-based; settings: time 24.0 hrs
[23] = system: Plasma; assay: Anticoagulant activity in human plasma assessed as prolongation of activated partial thromboplastin time at 300 uM incubated for 2 mins by aPTT reagent based assay relative to control; format: functional
[24] = system: Plasma; assay: Anticoagulant activity in human plasma assessed as prolongation of […] time at 300 uM incubated for 2 mins by PT reagent based assay relative to control; format: functional
[25] = system: Plasma; assay: Anticoagulant activity in human plasma assessed as prolongation of activated partial thromboplastin time incubated for 2 mins by aPTT reagent based assay; format: functional
[26] = system: Plasma; assay: Anticoagulant activity in non-activated human plasma at 10 to 25 uM measured after 30 mins; format: functional, cell-free; settings: dose 10-25 µM

Sequence of Coagulation factor XI (P03951 19-387 limits assumed): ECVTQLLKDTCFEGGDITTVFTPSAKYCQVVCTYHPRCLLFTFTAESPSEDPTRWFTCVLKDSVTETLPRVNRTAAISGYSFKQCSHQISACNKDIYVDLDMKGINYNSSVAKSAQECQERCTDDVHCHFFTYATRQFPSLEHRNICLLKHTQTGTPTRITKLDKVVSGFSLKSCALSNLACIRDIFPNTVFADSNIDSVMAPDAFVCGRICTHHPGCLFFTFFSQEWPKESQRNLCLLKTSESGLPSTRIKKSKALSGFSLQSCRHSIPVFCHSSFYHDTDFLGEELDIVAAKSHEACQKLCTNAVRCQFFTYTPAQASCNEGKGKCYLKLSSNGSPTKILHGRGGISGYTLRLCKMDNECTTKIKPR
Sequence of Coagulation factor XI (P03951 388-625 limits assumed): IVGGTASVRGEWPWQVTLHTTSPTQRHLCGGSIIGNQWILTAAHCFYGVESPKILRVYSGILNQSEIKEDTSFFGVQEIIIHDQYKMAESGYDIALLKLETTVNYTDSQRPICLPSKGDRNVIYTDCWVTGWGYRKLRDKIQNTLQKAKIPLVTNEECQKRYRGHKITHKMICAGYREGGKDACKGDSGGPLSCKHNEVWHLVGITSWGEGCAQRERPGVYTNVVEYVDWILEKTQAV
Sequence of Tissue-type plasminogen activator (P00750 whole entry): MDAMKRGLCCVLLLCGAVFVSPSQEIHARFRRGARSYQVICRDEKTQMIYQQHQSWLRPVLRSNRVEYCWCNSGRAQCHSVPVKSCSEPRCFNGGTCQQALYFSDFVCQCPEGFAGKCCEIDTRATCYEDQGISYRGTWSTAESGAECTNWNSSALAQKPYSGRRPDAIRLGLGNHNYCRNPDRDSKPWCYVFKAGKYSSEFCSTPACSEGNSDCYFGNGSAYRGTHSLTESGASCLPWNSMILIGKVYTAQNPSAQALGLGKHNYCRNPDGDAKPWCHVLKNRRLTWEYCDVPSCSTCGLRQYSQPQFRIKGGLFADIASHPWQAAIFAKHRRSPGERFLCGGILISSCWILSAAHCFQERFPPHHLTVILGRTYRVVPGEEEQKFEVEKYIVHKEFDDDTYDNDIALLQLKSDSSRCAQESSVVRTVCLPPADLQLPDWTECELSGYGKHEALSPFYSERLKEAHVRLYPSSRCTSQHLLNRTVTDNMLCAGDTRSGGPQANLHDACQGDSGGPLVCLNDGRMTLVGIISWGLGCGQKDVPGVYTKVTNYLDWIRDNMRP
Sequence of Plasma kallikrein (P03952 20-390 limits assumed): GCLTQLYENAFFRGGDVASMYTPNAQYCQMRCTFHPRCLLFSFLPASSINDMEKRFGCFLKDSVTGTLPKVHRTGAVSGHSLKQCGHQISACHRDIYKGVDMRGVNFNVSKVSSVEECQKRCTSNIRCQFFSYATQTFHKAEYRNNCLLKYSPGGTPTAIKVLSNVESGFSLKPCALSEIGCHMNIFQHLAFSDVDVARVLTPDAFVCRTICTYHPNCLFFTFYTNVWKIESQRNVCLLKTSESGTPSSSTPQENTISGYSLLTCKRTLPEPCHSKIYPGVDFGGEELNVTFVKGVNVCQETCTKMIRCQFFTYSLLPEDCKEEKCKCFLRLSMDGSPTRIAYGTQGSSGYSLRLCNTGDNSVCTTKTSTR
Sequence of Plasma kallikrein (P03952 391-638 limits assumed): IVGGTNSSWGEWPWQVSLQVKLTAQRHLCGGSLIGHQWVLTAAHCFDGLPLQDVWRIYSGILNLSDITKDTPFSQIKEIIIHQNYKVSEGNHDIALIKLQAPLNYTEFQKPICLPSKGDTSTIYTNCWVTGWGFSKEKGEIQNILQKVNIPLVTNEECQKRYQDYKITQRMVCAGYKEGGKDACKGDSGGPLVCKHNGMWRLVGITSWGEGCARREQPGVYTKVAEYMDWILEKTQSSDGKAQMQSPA

With `Nc1nc(-c2ccccn2)nn1C(=O)c1cccc2ccccc12` the IC50 [1] was 35 nM, the IC50 [2] was 360 nM and the IC50 [3] was over 25000 nM. For the same molecule, the IC50 [4] was over 25000 nM, the IC50 [5] was over 5000 nM and the IC50 [6] was over 5000 nM. It also gave an IC50 [7] of over 5000 nM, a Ratio IC50 [8] of 10 and a Ratio IC50 [9] of over 710. It also gave a Ratio IC50 [10] of over 710, a Ratio IC50 [11] of over 140 and a Ratio IC50 [12] of over 140. It also gave a Ratio IC50 [13] of over 140, a Ratio IC50 [14] of over 140 and a Ratio IC50 [15] of over 140. The inhibition [16] was “Active”, the Ki [17] was 43.5 nM and the Kinact [18] was 0.026 min⁻¹. For the same molecule, the inhibition [19] was “inactive”, the K [20] was 5.96 10^5/M/min and the Activity [21] was “Active”. The Activity [22] was “Active”, the Activity [23] was 303% and the Activity [24] was 17%. For the same molecule, the EC1.5 [25] was 145 µM and the Activity [26] was “inactive”.
